pEC50: −log10 of the molar value. Like-named read-outs stand apart in the source and are kept apart here.
Tests used:
[1] = molecular target: T1, AGTR1 (Homo sapiens, UniProt P30556); experiment: DiscoveRx β-arrestin2 recruitment assay (enzyme complementation, Pathunter CHO-K1 AGTR1 β-arrestin cell line); format: cell-based; settings: DiscoveRx β-arrestin2 recruitment; for DiscoveRx β-arrestin2 Ymax (%): maximal response
T1 construct: host or cells: Pathunter CHO-K1 AGTR1 β-arrestin cell line (CHO-K1)
T1 sequence (P30556 1-359): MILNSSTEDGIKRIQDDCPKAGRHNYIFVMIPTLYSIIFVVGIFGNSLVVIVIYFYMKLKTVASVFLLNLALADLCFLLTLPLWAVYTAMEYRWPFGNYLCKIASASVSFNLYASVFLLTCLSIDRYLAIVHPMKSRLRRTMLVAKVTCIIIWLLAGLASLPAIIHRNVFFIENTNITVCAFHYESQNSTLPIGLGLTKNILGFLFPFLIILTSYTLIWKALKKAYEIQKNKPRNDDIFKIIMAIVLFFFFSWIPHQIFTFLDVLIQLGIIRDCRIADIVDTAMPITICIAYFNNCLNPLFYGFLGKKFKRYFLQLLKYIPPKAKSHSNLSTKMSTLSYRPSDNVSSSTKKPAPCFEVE
In short: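 CHO-K1 cells expressing AGTR1 with β-arrestin2 enzyme-complementation reporter, plated 14-16 h ahead in 1% serum medium, then exposed to compounds for 90 min at 37° C. Chemiluminescence read after 1 h detection. EC50 (agonist) or IC50 (antagonist) from 4-parameter logistic fit; activity as percentage of All maximal effect.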

[2] = molecular target: T2, hAT1R (Homo sapiens, UniProt P30556); experiment: cell-based; settings: agonist mode; for pEC50: read-out: BRET P63 EC50
T2 sequence (P30556 1-359): T1 sequence (P30556 1-359)

[3] = molecular target: T2, hAT1R; experiment: cell-based; settings: section of the 42nd table ending at r951, example numbering restarts after the DiscoveRx section; read-out: β-arrestin2 EC50
[4] = molecular target: T1, AGTR1; experiment: DiscoveRx IP1 accumulation assay (HTRF), agonist mode, Pathunter CHO-K1 AGTR1 β-arrestin cell line; format: cell-based; settings: for pEC50: read-out: IP-1 EC50
In short: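 Agonist mode in CHO-K1 AGTR1 β-arrestin cells plated 14-16 h before; compounds at varying concentrations for 90 min at 37° C, IP1 accumulation read by HTRF (D2-conjugate and anti-IP1 cryptate, 20 min room temperature). EC50 from 4-parameter logistic fit; activity given as percentage of maximal AII effect.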

| SMILES | pEC50 [1] | DiscoveRx β-arrestin2 Ymax (%) [1] [%] | pEC50 [2] | pEC50 [3] | IP-1 Ymax (%) [4] [%] | pEC50 [4] | BRET P63 Ymax [2] [%] |
| --- | --- | --- | --- | --- | --- | --- | --- |
| CCc1nc2c(C)cc(C)nc2n1Cc1ccc(-c2cc(-n3cc(C)nn3)ccc2-c2nnn[nH]2)cc1 [Example 232] | 7.77 | 41.5 | < 4.00 | 6.99 | 7.5 | 7.22 | – |
| CCc1nc2c(C)cc(C)nc2n1Cc1ccc(-c2cc(-n3nnc4ccccc43)ccc2-c2nnn[nH]2)cc1 [Example 233, 1-(4′-((2-Ethyl-5,7-dimethyl-3H-imidazo[4,5-b]pyridin-3-yl)methyl)-6-(1H-tetrazol-5-yl)-[1,1′-biphenyl]-3-yl)-1H-benzo[d][1,2,3]triazole] | 7.98 | 59.2 | 7.88 | 8.01 | 10.2 | 7.50 | 17.9 |
| CCc1nc2c(C)cc(C)nc2n1Cc1ccc(-c2cc(-c3cn(CCF)nn3)ccc2-c2nnn[nH]2)cc1 [Example 239] | 8.27 | 59.1 | 7.78 | 8.05 | 34.2 | 7.51 | 44.3 |
| CCc1nc2c(C)cc(C)nc2n1Cc1ccc(-c2cc(-c3cn(CC(C)C)nn3)ccc2-c2nnn[nH]2)cc1 [Example 240] | 7.31 | 42.0 | 7.22 | 6.46 | 14.1 | 6.91 | 9.5 |
| CCCCn1cc(-c2ccc(-c3nnn[nH]3)c(-c3ccc(Cn4c(CC)nc5c(C)cc(C)nc54)cc3)c2)nn1 [Example 241] | 7.38 | 44.3 | 7.39 | 7.30 | 12.8 | 6.82 | 17.5 |
| CCc1nc2c(C)cc(C)nc2n1Cc1ccc(-c2cc(-c3cn(C)nn3)ccc2-c2nnn[nH]2)cc1 [Example 243, 2-Ethyl-5,7-dimethyl-3-((5′-(1-methyl-1H-1,2,3-triazol-4-yl)-2′-(1H-tetrazol-5-yl)-[1,1′-biphenyl]-4-yl)methyl)-3H-imidazo[4,5-b]pyridine] | 7.65 | 37.7 | 7.38 | 7.15 | 14.7 | 7.28 | 15.2 |
| CCc1nc2c(C)cc(C)nc2n1Cc1ccc(-c2cc(-c3ccccc3)ccc2C(=O)NS(C)(=O)=O)cc1 [Example 244] | 7.02 | 34.7 | 7.16 | 6.95 | 11.0 | 6.70 | 15.3 |
| CCc1nc2c(C)cc(C)nc2n1Cc1ccc(-c2cc(-c3ccccc3)ccc2-c2n[nH]c(=S)o2)cc1 [Example 246, 5-(4″-((2-Ethyl-5,7-dimethyl-3H-imidazo[4,5-b]pyridin-3-yl)methyl)-[1,1′:3′,1″-terphenyl]-4′-yl)-1,3,4-oxadiazole-2(3H)-thione] | 6.63 | 38.3 | 7.08 | 6.04 | 4.8 | 6.55 | 10.1 |
| CCc1nc2c(C)cc(C)nc2n1Cc1ccc(-c2cc(Oc3cccnc3F)ccc2-c2nn[nH]n2)cc1 [Example 262] | 7.70 | 50.8 | 7.95 | 7.84 | 8.6 | 7.42 | 14.4 |

Source: patent US12037324B2, “Biarylmethyl heterocycles” (Université de Montréal, priority 2016, dated 2024)
